Measurements published in patent US20040152665A1, “Amelioration of decreased weight and growth by n-acylated glucosamines” (priority 2003, published 2004).

What was measured:
[1] = Acute toxicology studies in rats (feeding); type: in vivo; settings: for rate of weight gain and growth compared to control animals: fed in significant amounts (glucosamine) or equimolar amounts (glucose)
Description: Acute toxicology studies were carried out in order to evaluate the toxicity in rats of the aforesaid compounds.

[2] = Experiment 1: weight gain of rats on restricted diet (20 g crushed chow/day) with supplement mixed in chow; type: in vivo, Sprague-Dawley male rats; settings: for average weights and rates of weight gain and growth: days 4 to 11, 20 g chow/day supplemented with 1.0 g GlcNBu or 0.75 g Glc (equimolar) per day per animal; for average weights and rates of weight gain and growth / average rates of weight gain and growth and body weights: compared to control; for average rates of weight gain and growth and body weights: days 12 to 18, 20 g chow/day supplemented with 1.5 g GlcNBu or 1.148 g Glc (equimolar) per day per animal; for stimulation of weight gain and growth (overall, Experiment 1): oral supplementation of restricted diet, 18 days
Text: Twelve Sprague-Dawley male rats of body weights between 85 and 90 g each were placed in metabolic cages with access to food, each in an individual separate feeding compartment, so the animals could consume all their food without loss or spillage. Each morning 20 g of crushed commercial chow, which was less than the average determined amount of crushed chow these animals consume. ad lib, was placed in each individual feeding compartment. This procedure ensured that each animal would completely consume all of the crushed chow placed in each feeding compartment over the 24 hours starting with the said placement of the food. Supplementation of the crushed chow with the compounds to be tested was accomplished by mixing the compound with the chow. All test compounds were fully acceptable by the animals and the feeding compartments were emptied by the animals of the crushed chow and any test compound mixed therein, within 24 hr from the beginning of each feeding period. The animals were allowed free access to drinking water throughout the experimental period, which they consumed ad lib. The animals, obtained from a single commercial shipment, were randomly assigned to three experimental groups with four animals in each group. The experimental groups of animals are designated in FIG. 1 (A & B) as control; N-butyryl-D-glucosamine, shown as formula (II) and abbreviated as GlcNBu; and D-glucose abbreviated as Glc.
Starting at day 1 and continuing to day 12, inclusive, supplementations of the 20 g of crushed chow per day per animal were as following: Control group—no supplementation; GlcNBu group—supplementation with 1.0 g of GlcNBu per day per animal; Glc—supplementation with 0.75 g of Glc per day per animal, which corresponds to an equimolar amount of this GlcNBu supplementation.
On day 12 and continuing through day 18, the crushed chow (20 g given per day per animal) was further supplemented as follows: Control group—no supplementation; GlcNBu group—supplementation with 1.5 g of GlcNBu per day per animal; Glc —supplementation with 1.148 g of Glc per day per animal, which corresponds to an equimolar amount of this GlcNBu supplementation. It will be observed from FIG. 1 that there was no difference in the average rates of weight gain and growth or weights of the animals in the Glc and the control experimental groups of animals during the period of 12 to 18 days, inclusive.

epiphyseal growth plate = experiment: Experiment 5: 35S[SO4] autoradiography of epiphyseal growth plates; type: in vivo, rats; settings: for mean density value of autoradiograms in the region of the epiphyseal growth plate (area under scan curve; black = 0, white = 255): 20 hours after 20 μCi 35S[SO4] i.p. on day 18 of Experiment 1, 12 autoradiograms per group, control 125.6; for incorporation of radioisotope into sulfated glycosaminoglycans of proteoglycans of the epiphyseal growth plates, compared to control: 20 hours after 35S[SO4] injection
Description: At the end of Experiment 1, described above, the rats were injected intra-peritonealy with 20 μCi of ^35S[SO4] in 1 ml of saline on day 18 and sacrificed 20 hours after the injection. The femurs were removed and the distal ends of the bones were processed histologically for autoradiography. Histological sections of the bones were used to make autoradiograms on X-ray film and were also processed for routine histology, including Toluidine blue staining for assessment of the proteoglycans in the growth plate. No histological abnormalities were detected in the histology sections obtained from any of the experimental groups of animals. The density of the autoradiograms in the region of the epiphyseal growth plate was evaluated and quantified utilizing a scanning microscope and the appropriate software. The software calculates the density of the autoradiogram by scoring a black region (maximally incorporated radioactivity) as 0 and a white region (no incorporated radioactivity) as 255. The areas under the curves of the scan of the autoradiogram (see FIG. 5) are then computed to give the stated values. The mean values of all of the autoradiograms (12 autoradiograms for each group of animals) were: Control, 125.6; Glc-supplemented, 127.1; GlcNBu—supplemented, 143.2. FIG. 5 illustrates scans of typical autoradiograms for the control, Glc-supplemented and GlcNBu-supplemented groups. Each scan is illustrated by a curve whose bases (at the top right and left of the figure) represent radioisotope incorporation at the periphery of the epiphyseal growth plate, while the trough of the curve (in the central part of the figure) represents radioisotope incorporation in the central part of the epiphyseal growth plate. It can be seen that for each of the experimental groups less radioactivity has been incorporated in the central part of the epiphyseal growth plates (the trough of the curve), compared to the periphery of the epiphyseal growth plate (the bases of the curve). The curves with the deepest, middle and least troughs represent autoradiograms from the epiphyses of animals fed with GlcNBu (dots-dashes), Glc (dots) and controls (solid line), respectively, as described in Experiment 1.

[3] = Setnikar I et al. Arzneimittelforschung 1986; cited from earlier work
[4] = Experiment 4: weight gain of rats fed ad libitum and gavaged with various amounts of supplement; type: in vivo, Sprague Dawley male rats; settings: for effect on weight gain: 2000 mg/kg by gavage
Description: (§1) For the data illustrated in FIG. 4, thirty Sprague Dawley male rats were adapted for one week so that each of their weights at the onset of treatment was approximately 185 grams. Each treatment group consisted of six animals, each administered one of the following treatments: water, 20 mg/kg GlcNBu, 200 mg/kg GlcNBu, 2000 mg/kg GlcNBu of 2000 mg/kg GlcN. All animals were fed Purina Rat Chow and water ad libitum. […] For nine days, the compounds were administered using the gavage technique; half doses being administered at 08:00 and at 17:00. Final urine samples were collected, histological examinations were performed to identify any overt signs of damage and then samples from each were harvested. Urinanalysis was performed using reagent strips (Multistix 8 SG from Bayer Inc. Healthcare Division, Etobicoke ON). […] No symptoms of neurological damage such as seizures or problems with vision were observed. All animals were well groomed and clean, and their snouts were normal.

[5] = Experiment 4: toxicity observations (behaviour, histological examination, urinanalysis); type: in vivo; settings: gavage nine days; GlcN 2000 mg/kg, GlcNBu 20, 200, 2000 mg/kg; data not shown
Description: as §1

[6] = Experiment 3: weight gain of rats restricted to 10 g chow/day and gavaged with supplement; type: in vivo, Sprague Dawley male rats; settings: 300 mg by gavage three times daily, by the eighth day of treatment
Description: The weights, and behavioral and physical parameters of 20 Sprague Dawley male rats, 5 per treatment group, were monitored over a ten-day period. The control group was given Purina Rat Chow ad libitum. The treatment groups were restricted to 10 g of rat chow per day and were supplemented with one of 300 mg GlcNBu, 300 mg GlcN or water, administered by gavage three times daily (FIG. 3). The animals were then sacrificed by CO2 asphyxiation and their organs checked for signs of damage.

[7] = Experiment 2: weight gain of rats restricted to 10 g (later 15 g) chow/day, supplement dissolved in water then solid; type: in vivo, Sprague Dawley male rats
Description: The animals were maintained in metabolic cages for the duration of the study (FIG. 2). Parameters of behavior and physical appearance were observed daily for any indications of toxicological complications. Twelve Sprague Dawley male rats were restricted to 10 g of Purina Rat Chow per day for eight days. Treatment groups were provided with water containing 20 mg/mL GlcN or GlcNBu. Daily volumes of urine produced and water consumed were recorded. The mean water consumption (ml/day) for the three groups was: 22.80, 24.45 and 21.45 for the control, the GlcN-supplemented and the GlcNBu-supplemented groups, respectively. These values were not statistically significant. On day nine of the study, untreated water was provided and the mass of rat chow given daily was increased to 15 g, supplemented with an additional 1.0 g of solid treatment compound. On day 18, the animals were sacrificed by CO2 asphyxiation and their organs were inspected for damage.

| SMILES | rate of weight gain and growth compared to control animals [1] | average weights and rates of weight gain and growth [2] | average rates of weight gain and growth and body weights [2] | stimulation of weight gain and growth (overall, Experiment 1) [2] | mean density value of autoradiograms in the region of the epiphyseal growth plate (area under scan curve; black = 0, white = 255) (epiphyseal growth plate) | incorporation of radioisotope into sulfated glycosaminoglycans of proteoglycans of the epiphyseal growth plates, compared to control (epiphyseal growth plate) | concentrations of free glucosamine in the circulation after ingestion [3] | effect on weight gain ([4]; nine days) | upper limit of feeding in terms of observed toxicity ([1]; oral feeding, rats) | histological examinations for signs of toxicity [5] | increase in weights compared to water controls ([4]; 20 mg/kg by gavage, by day 3) | average weight gain compared to the GlcN group (2000 mg/kg) ([4]; 20 mg/kg by gavage, margin became insignificant by day seven) | increase in weights compared to water controls ([4]; 200 mg/kg by gavage, by day 5) | average weight gain compared to the GlcN group (2000 mg/kg) ([4]; 200 mg/kg by gavage, significantly heavier by day 4) | dose of maximal stimulatory effect on weight gain and growth ([4]; gavage, nine days, doses 20, 200, 2000 mg/kg) [mg/kg] | increase in weight compared to the same amount of GlcN [6] | weight gained over the water controls ([7]; 20 mg/mL in water for 8 days, then 1.0 g solid with 15 g chow, maintained after five days of treatment) | growth compared to the GlcN group ([7]; starting at about day 10) |
| --- | --- | --- | --- | --- | --- | --- | --- | --- | --- | --- | --- | --- | --- | --- | --- | --- | --- | --- |
| O=C[C@H](O)[C@@H](O)[C@H](O)[C@H](O)CO [Glc, D-glucose, reference compound] | no significant change | essentially identical | no difference | failed to stimulate growth or weight gain | 127.1 | (relatively small) stimulation of epiphyseal plate metabolism | – | – | – | – | – | – | – | – | – | – | – | – |
| N[C@H]1C(O)O[C@H](CO)[C@@H](O)[C@@H]1O (stereo partly shown) [GlcN, glucosamine] | decrease in the rate of weight gain and growth | – | – | – | – | – | only very low or not detectable concentrations | depression of weight gain | – | – | – | – | – | – | – | – | – | – |
| CCCC(=O)N[C@H]1C(O)O[C@H](CO)[C@@H](O)[C@@H]1O (stereo partly drawn) [GlcNBu, N-butyryl-D-glucosamine] | – | significantly higher than those of the other groups | further increase in the rate and average body weights | stimulated the weight gain and growth | 143.2 | less incorporation of the radioisotope | – | lesser stimulations, which were, nevertheless, higher than the control | no upper limit | failed to reveal any signs of toxicity | statistically significant from those of the water controls | significantly higher | statistically significant from those of the water controls | significantly higher | 200 | significantly greater increase in weight | consistent statistical differences in weight gained over the water controls | grew somewhat more rapidly |
